Laboratory results reported in patent publication US20240190893A1, “MACROCYCLIC 1,3-BRIDGED 6-CHLORO-7-PYRAZOL-4-YL-1 H-INDOLE-2-CARBOXYLATE AND 6-CHLORO-7-PYRIMIDIN-5-YL-1H-INDOLE-2-CARBOXYLATE DERIVATIVES AS MCL-1 INHIBITORS FOR THE TREATMENT OF CANCER” (JANSSEN PHARMACEUTICA NV, priority 2021, published 2024).

Key:
[1] = test system: MOLP-8 human multiple myeloma cell line; assay: Caspase-Glo 3/7 apoptosis induction assay in MOLP-8 cells; type: cell-based; conditions: MOLP8 cells, 2 hours at 37° C., averaged over all runs on all batches
Text: MCL-1 is a regulator of apoptosis and is highly over-expressed in tumor cells that escape cell death. The assay evaluates the cellular potency of small-molecule compounds targeting regulators of the apoptosis pathway, primarily MCL-1, Bfl-1, Bcl-2, and other proteins of the Bcl-2 family. Protein-protein inhibitors disrupting the interaction of anti-apoptotic regulators with BH3-domain proteins initiate apoptosis.
The Caspase-Glo® 3/7 Assay is a luminescent assay that measures caspase-3 and -7 activities in purified enzyme preparations or cultures of adherent or suspension cells. The assay provides a proluminescent caspase-3/7 substrate, which contains the tetrapeptide sequence DEVD. This substrate is cleaved to release aminoluciferin, a substrate of luciferase used in the production of light. Addition of the single Caspase-Glo® 3/7 Reagent in an “add-mix-measure” format results in cell lysis, followed by caspase cleavage of the substrate and generation of a “glow-type” luminescent signal.
This assay uses the MOLP-8 human multiple myeloma cell line, which is sensitive to MCL-1 inhibition.
Cell cultures were maintained between 0.2 and 2.0×10^6 cells/mL. The cells were harvested by collection in 50 mL conical tubes. The cells were then pelleted at 500 g for 5 mins before removing supernatant and resuspension in fresh pre-warmed culture medium. The cells were counted and diluted as needed.
The assay reagent was prepared by transferring the buffer solution to the substrate vial and mixing. The solution may be stored for up to 1 week at 4° C. with negligible loss of signal.
Compounds were delivered in assay-ready plates (Proxiplate) and stored at −20° C.
Assays always include 1 reference compound plate containing reference compounds. The plates were spotted with 40 nL of compounds (0.5% DMSO final in cells; serial dilution; 30 μM highest conc. 1/3 dilution, 10 doses, duplicates). The compounds were used at room temperature and 4 μL of pre-warmed media was added to all wells except column 2 and 23. The negative control was prepared by adding 1% DMSO in media. The positive control was prepared by adding the appropriate positive control compound in final concentration of 60 μM in media. The plate was prepared by adding 4 μL negative control to column 23, 4 μL positive control to column 2 and 4 μL cell suspension to all wells in the plate. The plate with cells was then incubated at 37° C. for 2 hours. The assay signal reagent is the Caspase-Glo solution described above, and 8 μL was added to all wells. The plates were then sealed and measured after 30 minutes.
The activity of a test compound was calculated as percent change in apoptosis induction as follows:
LC=median of the Low Control values
HC=Median of the High Control values
=30 μM of positive control
=100% apoptosis induction
% Effect (AC50)=100−((sample−LC)/(HC−LC))*100
% Control=(sample/HC)*100
% Control min=((sample−LC)/(HC−LC))*100

[2] = target: Myeloid Cell Leukemia 1 (Mcl-1) (Homo sapiens (Human), UniProt Q07820); assay: Terbium labeled Mcl-1 HTRF binding assay with Cy5-labeled BIM BH3 peptide; conditions: Tb-Mcl-1 25 pM, Cy5 Bim peptide 8 nM; Ki=IC50/(1+[L]/Kd), [L]=8 nM, Kd=10 nM
Sequence of Myeloid Cell Leukemia 1 (Mcl-1) (Q07820 whole entry): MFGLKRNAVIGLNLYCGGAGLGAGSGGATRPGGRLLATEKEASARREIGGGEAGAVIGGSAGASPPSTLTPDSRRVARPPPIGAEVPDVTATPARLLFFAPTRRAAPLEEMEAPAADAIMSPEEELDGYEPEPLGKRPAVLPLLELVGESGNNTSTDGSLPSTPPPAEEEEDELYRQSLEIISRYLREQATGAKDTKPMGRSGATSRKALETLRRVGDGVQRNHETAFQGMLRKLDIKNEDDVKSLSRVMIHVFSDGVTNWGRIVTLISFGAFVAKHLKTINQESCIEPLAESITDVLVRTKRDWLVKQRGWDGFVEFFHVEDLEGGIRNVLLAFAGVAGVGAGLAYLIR
Procedure: Terbium labeled Myeloid Cell Leukemia 1 (Mcl-1) homogeneous time-resolved fluorescence (HTRF) binding assay utilizing the BIM BH3 peptide (H2N—(C/Cy5Mal) WIAQELRRIGDEFN-OH) as the binding partner for Mcl-1.
This assay evaluated inhibition of the BH3 domain: Mcl-1 interaction by measuring the displacement of Cy5-labeled BIM BH3 peptide (H2N—(C/Cy5Mal) WIAQELRRIGDEFN-OH) in the HTRF assay format.
The following assay and stock buffers were prepared for use in the assay: (a) Stock buffer: 10 mM Tris-HCl, pH=7.5+150 mM NaCl, filtered, sterilized, and stored at 4° C.; and (b) 1× assay buffer, where the following ingredients were added fresh to stock buffer: 2 mM dithiothreitol (DTT), 0.0025% Tween-20, 0.1 mg/mL bovine serum albumin (BSA). The 1×Tb-Mcl-1+Cy5 Bim peptide solution was prepared by diluting the protein stock solution using the 1× assay buffer (b) to 25 pM Tb-Mcl-1 and 8 nM Cy5 Bim peptide.
Using the Acoustic ECHO, 100 nL of 100× test compound(s) were dispensed into individual wells of a white 384-well Perkin Elmer Proxiplate, for a final compound concentration of 1× and final DMSO concentration of 1%. Inhibitor control and neutral control (NC, 100 nL of 100% DMSO) were stamped into columns 23 and 24 of assay plate, respectively. Into each well of the plate was then dispensed 10 μL of the 1×Tb-Mcl-1+Cy5 Bim peptide solution. The plate was centrifuged with a cover plate at 1000 rpm for 1 minute, then incubated for 60 minutes at room temperature with plates covered.
The TR-FRET signal was read on an BMG PHERAStar FSX MicroPlate Reader at room temperature using the HTRF optic module (HTRF: excitation: 337 nm, light source: laser, emission A: 665 nm, emission B: 620 nm, integration start: 60 μs, integration time: 400 μs).
The BMG PHERAStar FSX MicroPlate Reader was used to measure fluorescence intensity at two emission wavelengths—665 nm and 620 nm—and report relative fluorescence units (RFU) for both emissions, as well as a ratio of the emissions (665 nm/620 nm)*10,000. The RFU values were normalized to percent inhibition as follows:
% inhibition=(((NC−IC)−(compound−IC))/(NC−IC))*100
where IC (inhibitor control, low signal)=mean signal of 1×Tb-MCl-1+Cy5 Bim peptide+ inhibitor control or 100% inhibition of Mcl-1; NC (neutral control, high signal)=mean signal 1×Tb-MCl-1+Cy5 Bim peptide with DMSO only or 0% inhibition
An 11-point dose response curve was generated to determine IC50 values (using GenData) based on the following equation:
Y=Bottom+(Top−Bottom)/(1+10^((log IC50−X)*HillSlope))
where Y=% inhibition in the presence of X inhibitor concentration; Top=100% inhibition derived from the IC (mean signal of Mcl-1+inhibitor control); Bottom=0% inhibition derived from the NC (mean signal of Mcl-1+DMSO); Hillslope=Hill coefficient; and IC50=concentration of compound with 50% inhibition in relation to top/neutral control (NC).
In this assay [L]=8 nM and Kd=10 nM
Representative compounds of the present invention were tested according to the procedure as described above, with results as listed in the Table below (n.d. means not determined).

Row | Structure (SMILES) | AC50 ([1]; Homo sapiens, MOLP-8, 2 h) [nM] | Ki [2] [nM] | AC50 [1] [nM]
1 | Cc1nn(C)c(C)c1-c1c(Cl)ccc2c3c(C(=O)O)n(c12)CCCSCc1cc(n(C)n1)CCc1cc(c2ccc(F)cc2c1)OCCC3 (single isomer, unassigned) [Compound 2] | 130 | 0.084 | –
2 | Cc1nn(C)c(C)c1-c1c(Cl)ccc2c3c(C(=O)O)n(c12)CCCSCc1cc(n(C)n1)CCc1cc(c2ccc(F)cc2c1)OCCC3 (single isomer, unassigned) [Compound 3] | – | 0.133 | 207
3 | Cc1nn(C)c(C)c1-c1c(Cl)ccc2c3c(C(=O)O)n(c12)CCCS(=O)(=O)Cc1cc(n(C)n1)CCc1cc(c2ccc(F)cc2c1)OCCC3 (single isomer, unassigned) [Compound 4] | 7030 | 0.251 | –
4 | Cc1nn(C)c(C)c1-c1c(Cl)ccc2c3c(C(=O)O)n(c12)CCCS(=O)(=O)Cc1cc(n(C)n1)CCc1cc(c2ccc(F)cc2c1)OCCC3 (single isomer, unassigned) [Compound 5] | – | 0.276 | 7270
5 | Cc1nn(C)c(C)c1-c1c(Cl)ccc2c3c(C(=O)O)n(c12)CCSCc1cc(n(C)n1)CCc1cc(c2ccc(F)cc2c1)OCCC3 (single isomer, unassigned) [Compound 6] | 237 | 0.056 | –
6 | Cc1nn(C)c(C)c1-c1c(Cl)ccc2c3c(C(=O)O)n(c12)CCSCc1cc(n(C)n1)CCc1cc(c2ccc(F)cc2c1)OCCC3 (single isomer, unassigned) [Compound 7] | – | 0.086 | 231
7 | COCCn1nc(C)c(-c2c(Cl)ccc3c4c(C(=O)O)n(c23)CCCSCc2cc(n(C)n2)CCc2cc(c3ccc(F)cc3c2)OCCC4)c1C (single isomer, unassigned) [Compound 9] | 232 | 0.139 | –
8 | COCCn1nc(C)c(-c2c(Cl)ccc3c4c(C(=O)O)n(c23)CCCSCc2cc(n(C)n2)CCc2cc(c3ccc(F)cc3c2)OCCC4)c1C (single isomer, unassigned) [Compound 10] | – | 0.093 | 160
9 | Cc1nn(C)c(C)c1-c1c(Cl)ccc2c3c(C(=O)O)n(c12)CCSCc1cc(n(C)n1)CCc1cc(c2ccccc2c1)OCCC3 (single isomer, unassigned) [Compound 11] | 1460 | 0.307 | –
10 | Cc1nn(C)c(C)c1-c1c(Cl)ccc2c3c(C(=O)O)n(c12)CCSCc1cc(n(C)n1)CCc1cc(c2ccccc2c1)OCCC3 (single isomer, unassigned) [Compound 12] | – | 0.396 | 1350
11 | Cc1nn(C)c(C)c1-c1c(Cl)ccc2c3c(C(=O)O)n(c12)CCSCc1cc(n(C)n1)CSc1cc(c2ccccc2c1)OCCC3 (single isomer, unassigned) [Compound 13] | 1340 | 0.392 | –
12 | Cc1nn(C)c(C)c1-c1c(Cl)ccc2c3c(C(=O)O)n(c12)CCSCc1cc(n(C)n1)CSc1cc(c2ccccc2c1)OCCC3 (single isomer, unassigned) [Compound 14] | – | 0.423 | 1540
13 | Cc1c(-c2c(Cl)ccc3c4c(C(=O)O)n(c23)CCCSCc2cc(n(C)n2)CCc2cc(c3ccc(F)cc3c2)OCCC4)c(CO)nn1C (single isomer, unassigned) [Compound 16] | – | 0.056 | 414
14 | Cc1c(-c2c(Cl)ccc3c4c(C(=O)O)n(c23)CCCSCc2cc(n(C)n2)CCc2cc(c3ccc(F)cc3c2)OCCC4)c(CO)nn1C (single isomer, unassigned) [Compound 17] | – | 0.08 | 1830
15 | COCCOCc1nn(C)c(C)c1-c1c(Cl)ccc2c3c(C(=O)O)n(c12)CCCSCc1cc(n(C)n1)CCc1cc(c2ccc(F)cc2c1)OCCC3 (single isomer, unassigned) [Compound 20] | – | 0.073 | 173
16 | COCCOCc1nn(C)c(C)c1-c1c(Cl)ccc2c3c(C(=O)O)n(c12)CCCSCc1cc(n(C)n1)CCc1cc(c2ccc(F)cc2c1)OCCC3 (single isomer, unassigned) [Compound 21] | – | 0.155 | 1010
17 | Cc1nn(C)c(C)c1-c1c(Cl)ccc2c3c(C(=O)O)n(c12)CCCSCc1cc(n(C)n1)CCc1cc(c2ccc(F)cc2c1)OCCC3 [Compound 1] | 90.5 | 0.126 | –
18 | Cn1cc(-c2c(Cl)ccc3c4c(C(=O)O)n(c23)CCCSCc2cc(n(C)n2)CCc2cc(c3ccc(F)cc3c2)OCCC4)cn1 [Compound 8] | 1340 | 0.977 | –
19 | Cn1nc2cc1CCc1cc(c3ccc(F)cc3c1)OCCCc1c(C(=O)O)n(c3c(-c4cncnc4)c(Cl)ccc13)CCC[S+]([O-])C2 (stereo not drawn) [Compound 15] | – | 0.426 | –
20 | Cc1nn(C)c(C)c1-c1c(Cl)ccc2c3c(C(=O)O)n(c12)CCCSCc1cc(n(C)n1)CSc1cc(c2ccccc2c1)OCCC3 [Compound 18] | – | – | 3640
21 | Cc1nn(C)c(C)c1-c1c(Cl)ccc2c3c(C(=O)O)n(c12)CCCSCc1cc(n(C)n1)CSc1cc(c2ccccc2c1)OCCC3 [Compound 19] | – | – | 740
